Experiments:
[1] = tested on: MDA-MB-231 cells gene expression; assay: RNA microarray of MDA-MB-231 cells (Example 17); format: cell-based, human; settings: 24 h
Experimental: Expression of ˜54,000 transcripts was analyzed in control and drug-treated cultures, using Affymetrix Human Genome U133 plus 2.0 microarrays. Subsequent analysis was focused on genes affected by treatment at p<0.01. There was 93% concordance between Tetrac and Tetrac NP in terms of genes affected; notable disparities included downregulation of epidermal growth factor receptor (EGFR) by Tetrac NP and no affect of unmodified Tetrac on this gene.

[2] = tested on: matrigel plug angiogenesis; assay: Mouse matrigel model of angiogenesis (plug hemoglobin); format: in vivo, mice (C57BL/6NCr)
Experimental: Normal male mice (C57BL/6NCr) 6-8 weeks of age and weighing ˜20 g were purchased from Taconic farm. Animals were housed 4 per cage, in controlled conditions of temperature (20-24° C.); humidity (60-70%) and 12 hrs. light/dark cycle provided with food and water ad libitum. […] Aliquots of matrigel were placed into cold polypropylene tubes to prevent the matrigel from solidifying and the angiogenesis promoter added to matrigel with or without agonist. Mice were treated daily. Matrigel was subcutaneously injected as triple injection per animal at 100 μL/animal. At day 14 post plug implant all animals were killed in CO2 chamber and matrigel plugs were collected. Plug hemoglobin content was analyzed from three implants/mice (n=6 per group) to measure angiogenesis.
The matrigel plugs dissected from the mice were carefully stripped of any remaining peritoneum. The plugs were placed into 0.5 mL tube of ddH2O and homogenized for 5-10 min. […] Absorbance was read with a Microplate Manager ELISA reader at 540 nm. […] Hemoglobin concentration is a reflection of the number of blood vessels in the plugs.

[3] = tested on: GL261 cells; assay: Cell multiplicity (CM) factor after one hour Tetrac exposure; format: cell-based, murine; settings: after one hour exposure to Tetrac
Experimental: Cell multiplicity (CM) was determined from Giemsa stained slides by counting the number of cells per microcolony under 20× magnification. At least 400 microcolonies were counted.
The length of time that Tetrac biologically affected GL261 cells was also determined. To do this, the multiplicity relationship defined above was utilized. Tetrac was added to cells one hour prior to the determination of the multiplicity. After the exposure of exponentially growing GL261 cells to Tetrac, the Tetrac containing medium was removed from GL261 cells, which contained an unknown residual and fresh medium (without Tetrac) was added. As a function of time (i.e., 0, 1, 2, 3, 4, 6, 8, and 10 hours, and 1-6 days), the cells, containing an unknown residual amount of remaining Tetrac, were then processed for determination of the multiplicity index (i.e. the number of cells per microcolony).

[4] = tested on: human medullary carcinoma of the thyroid (MTC) xenografts; settings: mouse, in vivo
Experimental: Human medullary carcinoma cells (TT, Catalog No. CRL-1803) were purchased from American Type Culture Collection (Manassas, Va.) and cultured as instructed by the supplier, using a complete growth medium consisting of F-12K medium with 10% FBS. Cells were cultured in 5% CO2/air atmosphere at 37 C to sub-confluence and then treated with 0.25% (w/v) trypsin/EDTA to affect cell release from the culture vessel. After washing with culture medium, the cells were suspended in DMEM (free of phenol red and FBS) and counted. • Tetrac versus tetrac NP distribution in h-MTC. […] Female NCr nude homozygous mice aged 5-6 weeks and body weights of 20 g were purchased form Taconic Farms (Hudson N.Y.). Animals were maintained under specific pathogen-free conditions and housed 4 animals per cage, under controlled conditions of temperature (20-24° C.) and humidity (60-70%) and a 12 h light/dark cycle. Water and food were provided ad libitum.

[5] = tested on: MDA-MB-231 cells gene expression; assay: RNA microarray of MDA-MB-231 cells (Example 16); format: cell-based, human
Experimental: MDA-MB-231 cells were purchased from ATCC (Manassas, Va.). Cells were maintained until use in DMEM that contained 10% FBS. The incubator conditions were 5% CO2/95% 02 and 37° C. The action of unmodified Tetrac and nanoparticulate on MDA-MB-231 cells was determined in a perfusion bellows cell culture system we have recently described for quantitating pharmaceutical agent pharmacodynamics in vitro. (See Lin et al., J Steroid Biochem Mol Biol 113: 182-188 (2009)). In brief, the cell culture system is a disposable bioreactor capable of high density cell culture for studies of anti-cancer drugs. Bellows-induced alternate flow of culture medium and air through porous matrices where cells are grown provides a relatively low shear, high aeration, foam-free culture environment. Medium level is raised and lowered to submerge and expose matrices to create a dynamic interface between air and media on the cell surface. Anchorage-dependent cells are grown on plastic flakes in the system. The flakes facilitate harvesting of whole cells for analysis. In the present studies, 5×10^7 cells were seeded in each perfusion flask and incubated at 37 C overnight. Flakes thereafter were sampled at regular intervals (FIG. 44), subjected to trypsinization and the harvested cells counted. When Tetrac or nanoparticulate Tetrac were initially added to the system, flasks contained 20-50×10^6 cells. Cell cultures were re-fed with 1% FBS-containing medium. Studies were carried out in duplicate flasks and replicated once. • Cell culture for harvesting of RNA. MDA-MB-231 cells were maintained in DMEM that was supplemented with 10% FBS in a 5% CO2/95% 02 air incubator at 37° C. For two days prior to exposure to Tetrac and nanoparticulate Tetrac, cells were maintained in 0.25% FBS that was stripped of estrogen and thyroid hormone. (See Lin et al., Biochemistry 42: 7571-7579 (2003)). • RNA microarray and analysis. Microarray analysis experiments were conducted as described previously. (See Glinsky et al., J Clin Invest 115: 1503-1521 (2005); Glinsky et al., J Clin Invest 113: 913-923 (2004); Glinsky et al., Clin Cancer Res 10: 2272-2283 (2004); and Glinsky et al., Mol Carcinog 37: 209-221 (2003)). […] Sample purity and integrity were verified with an Agilent BioAnalyzer (Santa Clara, Calif.). Expression analysis of 54,675 transcripts for each sample was by Affymetrix HG-U133A Plus 2.0 arrays. MAS5.0 software was used for data retrieval and analysis and concordant changes of gene expression in response to unmodified Tetrac and nanoparticulate Tetrac were defined by two-tailed t test at a threshold p value <0.01. Results • Effects of Tetrac and nanoparticulate Tetrac on MDA-MB-231 cell proliferation. […] Unmodified Tetrac at 10^−6M, introduced at day 0, inhibited cell proliferation by more than 30% by day 9. […] Actions shown here of nanoparticulate Tetrac on these pairs of genes are antithetic to tumor cell survival. […] A third pathway affected by the agents was that of the catenins. (See Takemaru et al., Nature 422: 905-909 (2003)). CBY1 is a potent inhibitor of β-catenin and the Wnt/β-catenin system, which are major survival pathways in cancer cells. CBY1 expression was induced by Tetrac and Tetrac NP.

`O=C(O)Cc1cc(I)c(Oc2cc(I)c(O)c(I)c2)c(I)c1` [Tetrac, tetraiodothyroacetic acid] was tested, and the “Change: CDKN2C” value ([1]; 10^−7M (Tetrac equivalent), hormone-stripped serum) was “↑”, the “Change: BCL2L14” value ([1]; 10^−7M) was “↑” and the “Change: CASP2” value ([1]; 10^−7M) was “↑”. For the same compound, the “Change: CBY1” value ([1]; 10^−7M) was “↑”, the “Change: CTNNA1” value ([1]; 10^−7M) was “↓” and the “Change: CTNNA2” value ([1]; 10^−7M) was “↓”. The “Change: CTSL1” value ([1]; 10^−7M) was “↓”, the “Change: CXCL10” value ([1]; 10^−7M) was “↑” and the “Change: Cyclins” value ([1]; 10^−7M) was “↓”. The “Change: EDN1” value ([1]; 10^−7M) was “↑”, the “Change: Interleukins” value ([1]; 10^−7M) was “↓” and the “Change: MCL1” value ([1]; 10^−7M) was “↓”. For the same compound, the “Change: NR1D1” value ([1]; 10^−7M) was “↓”, the “Change: THBS1” value ([1]; 10^−7M) was “↑” and the “Change: XIAP” value ([1]; 10^−7M) was “↓”. The “epidermal growth factor receptor (EGFR) expression” value ([1]; 10^−7M) was “no affect”, the “Mean inhibition of angiogenesis (%)” value ([2]; FGF 100 ng + Tetrac or analog 10 μg/plug) was 90 ± 13% and the “Mean inhibition of angiogenesis (%)” value ([2]; T4 + antagonist, each 10 μg/matrigel plug) was 89 ± 11%. The “inhibition of FGF induced angiogenesis” value ([2]; Tetrac 10 μg) was 85%, the “inhibition of FGF induced angiogenesis” value ([2]; Tetrac 30 μg) was 91% and the “time at which 50% decrease in the CM factor was recorded” value [3] was 60 h. The mortality [4] was “no mortality”, the BCL2L14 expression ([5]; MDA-MB-231) was “not a significant stimulatory action” and the CASP2 expression ([5]; MDA-MB-231) was “not a significant stimulatory action”. The CBY1 expression ([5]; MDA-MB-231) was “significantly increased”, the MCL1 expression ([5]; MDA-MB-231) was “did not significantly affect” and the THBS1 expression ([5]; MDA-MB-231) was “upregulation”. For the same compound, the XIAP expression ([5]; MDA-MB-231) was “also acted on XIAP” and the EGFR expression ([5]; MDA-MB-231 (FIG. 50)) was “ineffective”.
